The structures appear in SMILES notation.

For assay [1], the target named is T1, ALDH1A1 (Homo sapiens, UniProt P00352).
T1 sequence (P00352 1-501): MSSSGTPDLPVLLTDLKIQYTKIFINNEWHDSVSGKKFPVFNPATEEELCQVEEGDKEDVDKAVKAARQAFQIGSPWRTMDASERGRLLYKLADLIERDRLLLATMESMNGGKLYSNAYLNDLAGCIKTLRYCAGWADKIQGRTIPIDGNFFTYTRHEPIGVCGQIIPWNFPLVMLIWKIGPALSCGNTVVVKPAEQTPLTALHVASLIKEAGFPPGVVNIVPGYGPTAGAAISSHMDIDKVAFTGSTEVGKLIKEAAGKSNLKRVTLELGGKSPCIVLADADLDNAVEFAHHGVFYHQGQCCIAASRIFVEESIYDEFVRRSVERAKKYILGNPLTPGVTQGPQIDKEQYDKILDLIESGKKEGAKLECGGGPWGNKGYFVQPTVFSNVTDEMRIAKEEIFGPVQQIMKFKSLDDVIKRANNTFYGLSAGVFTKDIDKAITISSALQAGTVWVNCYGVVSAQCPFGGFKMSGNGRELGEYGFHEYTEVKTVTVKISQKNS
Briefly: Cell-based enzyme assay, retinoic acid production in ALDH1A1/H1299 cells. The gist of the method:
(§1)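 ALDH1A1- or ALDH1A2-stably transfected H1299 cells grown to confluence, then treated 20 h in serum-free RPMI-1640 with 2 μM all-trans-retinal plus varying inhibitor concentrations at 37 °C. Retinoic acid in cells and media quantified; inhibition from RA levels with vs without inhibitor.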

In assay [2] the target is T2, ALDH1A2 (Homo sapiens, UniProt O94788).
T2 sequence (O94788 1-518): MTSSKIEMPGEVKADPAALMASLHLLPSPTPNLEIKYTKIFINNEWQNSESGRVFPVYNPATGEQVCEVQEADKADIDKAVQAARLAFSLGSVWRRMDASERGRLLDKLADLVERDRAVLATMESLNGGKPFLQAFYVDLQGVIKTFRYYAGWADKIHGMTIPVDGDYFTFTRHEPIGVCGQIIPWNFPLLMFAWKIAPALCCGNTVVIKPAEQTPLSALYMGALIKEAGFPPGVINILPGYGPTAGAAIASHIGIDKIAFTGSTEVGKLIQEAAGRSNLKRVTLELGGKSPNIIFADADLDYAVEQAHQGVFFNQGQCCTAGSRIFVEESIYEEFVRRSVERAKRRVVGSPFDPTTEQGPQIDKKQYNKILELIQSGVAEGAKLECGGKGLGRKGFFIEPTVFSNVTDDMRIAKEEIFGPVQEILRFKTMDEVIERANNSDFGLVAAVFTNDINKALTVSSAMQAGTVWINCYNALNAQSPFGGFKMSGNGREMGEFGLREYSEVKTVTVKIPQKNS
The experiment in a line: Cell-based enzyme assay, retinoic acid production in ALDH1A2/H1299 cells. The gist of the method: as §1

Assay [3] addresses T2, ALDH1A2. Briefly: Inhibitor screening using purified enzymes: ALDH1A2 activity, retinoic acid production by HPLC (5 uM initial screen, then IC50). The assay is classed as biochemical. On the set-up: histidine-tag (C); made in house; host or cells: bacterial expression (pET28 vector, IPTG induction). The following applies: purified enzyme. The gist of the method: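 Purified His-tagged human enzymes in 10 mM HEPES pH 8.0, 150 mM KCl, 2 mM EDTA with 2 mM NAD, all-trans-retinal substrate; retinoic acid quantified by HPLC. ALDH1A2 initial screen: 1 μg enzyme, 5 μM retinal, 5 μM inhibitor, 15 min, 37° C; IC50 runs: 0.5 μg enzyme, 0.5 μg retinal, 5 min, 37° C.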

Broadly, the EC50 is the midpoint of the concentration-response curve. The low end stands for an effect from little substance, the high end for a need for much substance. By IC50 is commonly meant the concentration that inhibits the measured activity by half. Low readings indicate inhibition by little substance, high ones a need for much substance. In the case of `O=C(c1ccccc1)N1CCN(c2ccc([N+](=O)[O-])c(N3CCCC3)c2)CC1` [Compound 339, Phenyl-1-{4-[4-nitro-3-(pyrrolidin-1-yl)phenyl]piperazin-1-yl}methanone], the EC50 in assay [1] came out at 0.333 µM; in assay [2], 0.293 µM. Besides, it took 0.837 µM to reach half-maximal inhibition in assay [3] (IC50).

Turning to `O=C(c1cccc(Cl)c1)N1CCN(c2ccc([N+](=O)[O-])c(N3CCCC3)c2)CC1` [Compound 341, 3-Chlorophenyl-1-{4-[4-nitro-3-(pyrrolidin-1-yl)phenyl]piperazin-1-yl}methanone], the EC50 is less than 0.5 µM in assay [1] and 0.505 µM in assay [2]. In assay [3], this compound gave an IC50 of 1.45 µM.

Take `O=C(c1ccc(Cl)cc1)N1CCN(c2ccc([N+](=O)[O-])c(N3CCCC3)c2)CC1` [Compound 342, 4-Chlorophenyl-1-{4-[4-nitro-3-(pyrrolidin-1-yl)phenyl]piperazin-1-yl}methanone]: the half-maximal effective concentration (EC50) in assay [1] is 0.468 µM; in assay [2], 0.966 µM. In assay [3], the IC50 was determined as 4.56 µM.

As for `Cn1cccc1C(=O)N1CCN(c2ccc([N+](=O)[O-])c(N3CCCC3)c2)CC1` [Compound 343, [4-(4-Nitro-3-(pyrrolidin-1-yl)phenyl)piperazin-1-yl](1-methyl-1H-pyrrol-2-yl)methanone], the EC50 in assay [1] and in assay [2] was less than 0.5 µM in each case. The compound further showed an IC50 in assay [3] of 1.94 µM.

On to `O=C(c1ccc[nH]1)N1CCN(c2ccc([N+](=O)[O-])c(N3CCCC3)c2)CC1` [Compound 344, {4-[4-Nitro-3-(pyrrolidin-1-yl)phenyl]piperazin-1-yl}(1H-pyrrol-2-yl)methanone], for which the EC50 in assay [1] and in assay [2] was less than 0.5 µM in each case. Besides, 0.264 µM corresponded to half-maximal inhibition in assay [3] (IC50).

For the compound `COc1ccc(C(=O)N2CCN(c3ccc([N+](=O)[O-])c(N4CCCC4)c3)CC2)cc1` [Compound 345, 4-Methoxyphenyl-1-{4-[4-nitro-3-(pyrrolidin-1-yl)phenyl]piperazin-1-yl}methanone], the concentration for a half-maximal effect (EC50) is less than 0.5 µM in assay [1] and 1.19 µM in assay [2]. In assay [3], this compound had a half-inhibitory concentration (IC50) of 3.99 µM.

On to `CN(C)c1ccc(C(=O)N2CCN(c3ccc([N+](=O)[O-])c(N4CCCC4)c3)CC2)cc1` [Compound 346, 4-Dimethylaminophenyl-1-{4-[4-nitro-3-(pyrrolidin-1-yl)phenyl]piperazin-1-yl}methanone], for which the EC50 was less than 0.5 µM in assay [1] and 1.42 µM in assay [2]. The IC50 in assay [3] worked out at 5.69 µM.

Regarding `CC(=O)n1cccc1C(=O)N1CCN(c2ccc([N+](=O)[O-])c(N3CCCC3)c2)CC1` [Compound 347, {4-[4-Nitro-3-(pyrrolidin-1-yl)phenyl]piperazin-1-yl}(1-acetyl-pyrrol-2yl)methanone], the EC50 in assay [1] is 0.33 µM; in assay [2], 0.35 µM. The compound also registered an IC50 in assay [3] of 0.042 µM.

Consider `Cn1cccc1C(=O)N1CCN(c2ccc(NC(=O)C(Cl)Cl)c(N3CCCC3)c2)CC1` [Compound 367, 1-[4-(4-N-Dichloroacetyl-3-(pyrrolidin-1-yl)phenyl]piperazin-1-yl](1-methyl-1H-pyrrol-2-yl)methanone], for which the EC50 in assay [1] is 0.244 µM; in assay [2] it was more than 5 µM. In assay [3], this compound returned an IC50 of 2.3 µM.

On to `Cn1cccc1C(=O)N1CCN(c2ccc(NC(=O)CCl)c(N3CCCC3)c2)CC1` [Compound 372, 1-[4-(4-N-Chloroacetyl-3-(pyrrolidin-1-yl)phenyl]piperazin-1-yl](1-methyl-1H-pyrrol-2-yl)methanone], for which the EC50 in assay [1] amounted to 0.069 µM; in assay [2], 0.7 µM. For the same compound, in assay [3], it took 3.6 µM to reach half-maximal inhibition (IC50).

Regarding `Cn1cccc1C(=O)N1CCN(c2ccc(-c3ccc([N+](=O)[O-])cc3)c(N3CCCCC3)c2)CC1` [Compound 373], the EC50 in assay [1] was determined as 0.37 µM; in assay [2] it was 0.88 µM. The half-inhibitory concentration (IC50) in assay [3] was determined as 2.13 µM.

The values are drawn from US11548875B2, “Inhibitor compounds for male contraception” (University of Washington, priority 2018, dated 2023).
